Patent publication US11820726B2, “Motuporamine derivatives as antimicrobial agents and antibiotic enhancers against resistant gram-negative bacteria” (University of Central Florida Research Foundation, Inc., priority 2017, dated 2023)
Blank lines part the entries; values can stand above or below the compound they belong to.

Assays:
bacterial membrane = conditions: cited from earlier work
[1] = system: E. aerogenes EA289, P. aeruginosa PAO1, and K. pneumoniae KPC2-ST258; assay: Determination of antibiotic MIC in the presence of compounds (restoring enhancer concentration); assay type: cell-based
Description: Determination of antibiotic MIC in the presence of compounds: Briefly, restoring enhancer concentrations were determined with an inoculum of 5×10^5 colony forming unit (CFU) in MH broth (200 μL) containing twofold serial dilutions of each derivative and antibiotic (chloramphenicol, doxycycline, cefepime, or erythromycin; 2 μg/mL). […] Measurements were repeated in triplicate.

[2] = system: S. aureus RN4220, P. aeruginosa PAO1 and E. coli ANSI; conditions: cited from earlier work; for antibacterial activity: unsubstituted diamines; for activity against S. aureus RN4220, P. aeruginosa PAO1 and E. coli ANSI: higher polyamines
P. aeruginosa PAO1 = assay: MIC of doxycycline against P. aeruginosa PAO1; assay type: cell-based; conditions: Pseudomonas aeruginosa
Description: Antibiotics: All the antibiotics were purchased from Sigma-Aldrich except for doxycycline which was purchased from TCI Europe (Zwijndrecht, Belgium). All antibiotics were dissolved in water. The susceptibility of bacterial strains to antibiotics and compounds was determined in microplates by the standard broth dilution method, according to the recommendations of the Comité de l'AntibioGramme de la Société Française de Microbiologie (CA-SFM).^[36] Briefly, MICs were determined with an inoculum of 10^5 CFU in of MH broth (200 μL) containing twofold serial dilutions of each drug. […] Measurements were repeated in triplicate.

[3] = system: Staphylococcus aureus ATCC25923; assay: ATP release (membrane disruption) in S. aureus; assay type: cell-based; conditions: ATP release for 1 min, 100 μg/mL
Description: Measurement of ATP efflux: Squalamine were prepared in doubly distilled water at different concentrations. A suspension of growing S. aureus or E. aerogenes (EA289) in MH broth was incubated at 37° C. The suspension (90 μL) was added to squalamine solution (10 μL, synthesized in lab according to reported procedures), and the mixture was vortexed for Is. Luciferin-luciferase reagent (Yelen, France; 50 μL) was immediately added, and luminescence was quantified with an Infinite M200 microplate reader (Tecan) for 5 s. ATP concentration was quantified by addition of a known amount of ATP (1 μM).

E. aerogenes EA289 = assay: Nitrocefin hydrolysis assay (outer membrane permeabilization); assay type: cell-based, Enterobacter aerogenes; conditions: 5b even at 3.9 μM, compared to spermine-treated or untreated control
Description: Nitrocefin hydrolysis assay: Outer membrane permeabilization was measured by using nitrocefin, a chromogenic substrate of periplasmic β-lactamase. MH broth (10 mL) was inoculated with of an overnight culture (0.1 mL) of EA289 and grown at 37° C. to OD600=0.5. The remaining steps were performed at room temperature. Cells were recovered by centrifugation (3600 G, 20 min) and washed once with potassium phosphate buffer (PPB) (20 mM, pH 7.2) containing MgCl2 (1 mM). After another centrifugation, the pellet was resuspended in PPB (100 μL) and adjusted to OD600=0.5. Then, either Polymyxin B (positive control; Sigma-Aldrich) or 5b (50 μL) was added to the cell suspension (100 gm/L) to final concentrations of 0.98-500 μM “2.5, 15, 62.5, and 125 μM”. Nitrocefin (50 μL, 50 μg/mL; Oxoid) was added, and its hydrolysis was monitored spectrophotometrically by measuring the increase in absorbance at 490 nm. Assays were performed in 96-well plates with an M200 Pro spectrophotometer (Tecan).

Compound: S=C(NCCCNCCCCCNCCCNC(=S)NCC(c1ccccc1)c1ccccc1)NCC(c1ccccc1)c1ccccc1 [1,13-bis (((2,2-diphenyl)-1-ethyl)thioureido)-4,10-diazatridecane]
cytoplasmic membrane depolarization (bacterial membrane): depolarize the cytoplasmic membrane

Compound: Cl.Cl.NCCCCNCc1c2ccccc2cc2ccccc12 [7b]
synergy with chloramphenicol and erythromycin ([1]; antibiotic 2 μg/mL, PAO1, EA289 and KPC2-ST258): weak or no activity | restoration of doxycycline activity ([1]; doxycycline 2 μg/mL, derivative even at 40 μM): no improvement

Compound: NCCCCCN [cadaverine]
antibacterial activity [2]: no antibacterial activity | membrane rupture (bacterial membrane): did not cause membrane rupture

MIC (P. aeruginosa PAO1): 16 µg/mL
Compound: C[C@H]1c2cccc(O)c2C(=O)C2=C(O)[C@]3(O)C(=O)C(C(N)=O)=C(O)[C@@H](N(C)C)[C@@H]3[C@@H](O)[C@@H]21 [doxycycline]

Compound: NCCCCN [putrescine]
antibacterial activity [2]: no antibacterial activity | membrane rupture (bacterial membrane): did not cause membrane rupture

Compound: NCCCCNCCCN [spermidine]
activity against S. aureus RN4220, P. aeruginosa PAO1 and E. coli ANSI [2]: inactive

Compound: NCCCNCCCCNCCCN [spermine]
ATP release (disruption of the bacterial membrane) [3]: no significant effect | activity against S. aureus RN4220, P. aeruginosa PAO1 and E. coli ANSI [2]: inactive

Compound: CC(C)[C@@H](CC[C@@H](C)[C@H]1CC[C@H]2[C@@H]3[C@H](O)C[C@H]4C[C@@H](NCCCNCCCCN)CC[C@]4(C)[C@H]3CC[C@]12C)OS(=O)(=O)O [squalamine]
ATP release (disruption of the bacterial membrane) [3]: dramatic disruption of the bacterial membrane

Compound: polymyxin-B
rate of nitrocefin hydrolysis (E. aerogenes EA289): increase in nitrocefin hydrolysis
